Data reported in US20150239831A1, “INHIBITORS OF CENTRAL NERVOUS SYSTEM VASOACTIVE INHIBITORY PEPTIDE RECEPTOR 2” (The Trustees Of Columbia University In The City Of New York, priority 2012, published 2015).

How the values were obtained:
Type in all cases: cell-based
Parameters in all cases: expressed in transfected cells; host or cells: HEK293 cells transfected with VIPR2 in pCDNA3.1 (as described)
VIPR2 [1] = target: T1, VIPR2 (Homo sapiens, UniProt P41587); test: Inhibition of VIP-induced β-arrestin recruitment (% Activity Arrestin)
T1 sequence (P41587 24-438): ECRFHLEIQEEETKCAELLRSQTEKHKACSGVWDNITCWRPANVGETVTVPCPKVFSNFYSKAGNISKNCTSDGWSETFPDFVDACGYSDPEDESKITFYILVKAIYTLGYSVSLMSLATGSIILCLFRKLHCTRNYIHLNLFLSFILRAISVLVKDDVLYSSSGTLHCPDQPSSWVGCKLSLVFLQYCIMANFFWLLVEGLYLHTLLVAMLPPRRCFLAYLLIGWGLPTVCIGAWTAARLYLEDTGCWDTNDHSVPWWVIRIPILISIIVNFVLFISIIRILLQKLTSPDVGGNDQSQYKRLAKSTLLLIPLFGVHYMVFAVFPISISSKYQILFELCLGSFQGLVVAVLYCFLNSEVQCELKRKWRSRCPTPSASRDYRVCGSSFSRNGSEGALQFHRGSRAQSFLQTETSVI
How it was run: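 Read-out is β-gal fragment complementation (luminescence) between ProLink-hVIPR2 and EA-β-arrestin2 in transiently transfected HEK293 cells. Cells rested overnight, then exposed to inhibitor 2 h at 37 °C before detection reagent (5 min–1 h, room temperature); values are % activity against VIP-driven recruitment.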

VIPR2 [2] = target: T1, VIPR2; test: Inhibition of VIP-induced cAMP elevation (% Activity cAMP)
How it was run: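 HEK293 cells stably transfected with human VIPR2 were incubated with inhibitor and VIP for 30 min, then cAMP was detected by HTRF after at least 1 h at room temperature. The 665/620 nm ratio ×10,000 was calculated.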

VIPR2 [3] = target: T1, VIPR2; test: % Activity: inhibition of VIP-induced cAMP elevation and β-arrestin recruitment (Table 2)
How it was run: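 Recruitment of β-arrestin measured by β-gal fragment complementation luminescence in HEK293 cells co-expressing VIPR2-ProLink and β-arrestin2-EA after 2 h compound at 37° C. VIP-driven cAMP rise in stable hVIPR2 HEK293 cells measured by HTRF after 30 min with inhibitor and VIP.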

| inhibition at 0.5 µM (VIPR2 [1]; Batch 3) [%] | inhibition at 1 µM (VIPR2 [1]; Batch 3) [%] | inhibition at 5 µM (VIPR2 [1]; Batch 3) [%] | inhibition at 0.5 µM (VIPR2 [2]; Batch 3) [%] | inhibition at 1 µM (VIPR2 [2]; Batch 3) [%] | inhibition at 5 µM (VIPR2 [2]; Batch 3) [%] | % Activity (VIPR2 [3]) [%] | inhibition at 0.5 µM (VIPR2 [1]; Batch 1) [%] | inhibition at 1 µM (VIPR2 [1]; Batch 1) [%] | inhibition at 5 µM (VIPR2 [1]; Batch 1) [%] | inhibition at 0.5 µM (VIPR2 [2]; Batch 1) [%] | inhibition at 1 µM (VIPR2 [2]; Batch 1) [%] | inhibition at 5 µM (VIPR2 [2]; Batch 1) [%] | SMILES |
| --- | --- | --- | --- | --- | --- | --- | --- | --- | --- | --- | --- | --- | --- |
| 10.2 | 5.2 | 11.9 | 21.6 | 16.7 | 27.4 | 19.65 |  |  |  |  |  |  | CC(C)CNc1ccc(S(=O)(=O)NC[C@@H](O)C[C@@H](Cc2ccccc2)C(=O)N[C@H]2c3ccccc3C[C@H]2O)cc1 [Compound X086] |
| 2.8 | 2.3 | 11.3 | 10.8 | 19.1 | 19.1 | 15.2 |  |  |  |  |  |  | CCCCCNc1ccc(S(=O)(=O)NC[C@@H](O)C[C@@H](Cc2ccccc2)C(=O)N[C@H]2c3ccccc3C[C@H]2O)cc1 [Compound X087] |
| -1.2 | 4.9 | 4.2 | 15.2 | 19.1 | 19.1 | 11.65 |  |  |  |  |  |  | CC(=O)Nc1ccc(S(=O)(=O)NC[C@@H](O)C[C@@H](Cc2ccccc2)C(=O)N[C@H]2c3ccccc3C[C@H]2O)cc1 [Compound X088] |
| -9.8 | -1.8 | 10.5 | -4.3 | 32.3 | 3 | 6.75 |  |  |  |  |  |  | CC(=O)Nc1ccc(S(=O)(=O)NC[C@H](C[C@@H](Cc2ccccc2)C(=O)N[C@H]2c3ccccc3C[C@H]2O)OC(C)=O)cc1 [Compound X089] |
| 0.5 | 0.2 | 9.7 | -8.7 | -8.7 | -5.8 | 1.95 |  |  |  |  |  |  | CC(=O)Nc1ccc(S(=O)(=O)NC[C@H](C[C@@H](Cc2ccccc2)C(=O)N[C@H]2c3ccccc3C[C@H]2OC(C)=O)OC(C)=O)cc1 [Compound X090] |
| -3.4 | -1.2 | -10.4 | 0.6 | 1.5 | 26.9 | 8.25 |  |  |  |  |  |  | CCC(=O)Nc1ccc(S(=O)(=O)NC[C@@H](O)C[C@@H](Cc2ccccc2)C(=O)N[C@H]2c3ccccc3C[C@H]2O)cc1 [Compound X091] |
| 5.3 | 5.1 | -7.5 | 1 | 6.9 | 16.7 | 4.6 |  |  |  |  |  |  | CC(C)C(=O)Nc1ccc(S(=O)(=O)NC[C@@H](O)C[C@@H](Cc2ccccc2)C(=O)N[C@H]2c3ccccc3C[C@H]2O)cc1 [Compound X092] |
| 6.4 | -0.3 | -4.2 | -2.4 | 23 | 34.3 | 15.05 |  |  |  |  |  |  | O=C(Nc1ccc(S(=O)(=O)NC[C@@H](O)C[C@@H](Cc2ccccc2)C(=O)N[C@H]2c3ccccc3C[C@H]2O)cc1)C1CC1 [Compound X093] |
| 6.4 | -1.8 | 0.2 | 7.4 | 6.4 | 26 | 13.1 |  |  |  |  |  |  | O=C(O)c1ccc(S(=O)(=O)NC[C@@H](O)C[C@@H](Cc2ccccc2)C(=O)N[C@H]2c3ccccc3C[C@H]2O)cc1 [Compound X094] |
| 6.3 | -1.6 | -1 | 13.8 | 22.1 | 69.5 | 34.25 |  |  |  |  |  |  | CNC(=O)c1ccc(S(=O)(=O)NC[C@@H](O)C[C@@H](Cc2ccccc2)C(=O)N[C@H]2c3ccccc3C[C@H]2O)cc1 [Compound X095] |
| 0.3 | 3.1 | -1.2 | 2.5 | 5.9 | 31.8 | 15.3 |  |  |  |  |  |  | CCN(CC)C(=O)c1ccc(S(=O)(=O)NC[C@@H](O)C[C@@H](Cc2ccccc2)C(=O)N[C@H]2c3ccccc3C[C@H]2O)cc1 [Compound X096] |
| 3.9 | 0.5 | 0.1 | 15.2 | 19.6 | 31.8 | 15.95 |  |  |  |  |  |  | O=C(NC1CCCC1)c1ccc(S(=O)(=O)NC[C@@H](O)C[C@@H](Cc2ccccc2)C(=O)N[C@H]2c3ccccc3C[C@H]2O)cc1 [Compound X097] |
| 4.8 | -2 | -7.7 | 25 | 32.3 | 90.6 | 41.4 |  |  |  |  |  |  | O=C(NCc1ccccc1)c1ccc(S(=O)(=O)NC[C@@H](O)C[C@@H](Cc2ccccc2)C(=O)N[C@H]2c3ccccc3C[C@H]2O)cc1 [Compound X098] |
| 4.1 | 1.8 | -5.4 | -1.4 | 0.1 | 25.5 | 10.05 |  |  |  |  |  |  | O=C(N[C@H]1c2ccccc2C[C@H]1O)[C@H](Cc1ccccc1)C[C@H](O)CNS(=O)(=O)c1ccc(C(=O)N2CCOCC2)cc1 [Compound X099] |
| -0.4 | 2.9 | -5.5 | -0.4 | 5.9 | 20.6 | 7.55 |  |  |  |  |  |  | CCCCNC(=O)c1ccc(S(=O)(=O)NC[C@@H](O)C[C@@H](Cc2ccccc2)C(=O)N[C@H]2c3ccccc3C[C@H]2O)cc1 [Compound X100] |
| 0 | -17.3 | -12.3 | -6.3 | -7.3 | -1.4 | −6.85 |  |  |  |  |  |  | O=C(N[C@H]1c2ccccc2C[C@H]1O)[C@H](Cc1ccccc1)C[C@H](O)CNS(=O)(=O)c1ccc(C(=O)N2CCCCC2)cc1 [Compound X101] |
|  |  |  |  |  |  | 21.9 | 23.9 | 25.3 | 31.5 | 17.6 | 14.8 | 12.3 | O=C(NC[C@@H](O)C[C@@H](Cc1ccccc1)C(=O)N[C@H]1c2ccccc2C[C@H]1O)c1c(Cl)cc(Cl)cc1Cl [D] |
|  |  |  |  |  |  | 17.6 | 36.4 | 35.1 | 26.1 | 17.6 | 14.3 | 9.1 | O=C(NC[C@@H](O)C[C@@H](Cc1ccccc1)C(=O)N[C@H]1c2ccccc2C[C@H]1O)c1ccccc1[N+](=O)[O-] [G] |
|  |  |  |  |  |  | 13.65 | 29.6 | 37.2 | 18 | 15.6 | 20 | 9.3 | COc1cc(C(=O)NC[C@@H](O)C[C@@H](Cc2ccccc2)C(=O)N[C@H]2c3ccccc3C[C@H]2O)cc(OC)c1OC [H] |
|  |  |  |  |  |  | 49.15 | 29.7 | 30.9 | 8.3 | 19.5 | 18.6 | 90 | CC(C)c1cc(C(C)C)c(S(=O)(=O)NC[C@@H](O)C[C@@H](Cc2ccccc2)C(=O)N[C@H]2c3ccccc3C[C@H]2O)c(C(C)C)c1 [J] |
|  |  |  |  |  |  | 27.35 | 24.2 | 35.1 | 33.4 | 18.4 | 15.2 | 21.3 | O=C(N[C@H]1c2ccccc2C[C@H]1O)[C@H](Cc1ccccc1)C[C@H](O)CNS(=O)(=O)c1cccc([N+](=O)[O-])c1 [L] |
|  |  |  |  |  |  | 4.75 | 19.9 | 7.4 | -4 | 11.8 | 11 | 13.5 | O=C(NC[C@@H](O)C[C@@H](Cc1ccccc1)C(=O)N[C@H]1c2ccccc2C[C@H]1O)c1cccc([N+](=O)[O-])c1 [M] |
